# Laboratory results from US10526337B2, “Heteroaryl derivative or pharmaceutically acceptable salt thereof, preparation method therefor, and pharmaceutical composition for preventing or treating diseases associated with PI3 kinases, containing same as active ingredient” (KOREA RESEARCH INSTITUTE OF CHEMICAL TECHNOLOGY, priority 2015, dated 2020).
# Key:
# PI3 Kinase (p120γ) (h) = target: T1, PI3 Kinase (p120γ) (h) (Homo sapiens, UniProt P48736); test: Inhibition of phosphatidylinositol 3-kinase gamma (PI3K γ), pAkt Western blotting in C5a-stimulated RAW264.7 macrophages; format: cell-based, mouse; conditions: ATP=10 uM, sample concentration=100 nM
# T1 construct: endogenous in cells; host or cells: RAW264.7
# Experimental: (§1) The stimulated cells were transferred in a 1.5 mL tube, followed by centrifugation at 3000 rpm for 1 minute. 100 μL of RIPA buffer (radioimmunoprecipitation assay buffer, 50 mM Tris-HCl, 5 mM EDTA, 150 mM NaCl, 1% NP-40, 1 mM PMSF, pH 8.0; ELPIS, Korea) was added thereto, which was stored in a 4° C. refrigerator for 12 hours. Centrifugation was performed at 4° C. at 14,000 rpm for 20 minutes. The supernatant was transferred into a new 1.5 mL tube. Protein was quantified by BCA (bicinchoninic acid) method and samples were prepared. The composition of the sample was as follows: sample buffer (ELPIS, EBA-1052) 5×, protein 10 μg, and 1× sample buffer to make the total volume 20 μL. The sample was heated at 100° C. for 5 minutes. The evaporated water vapor was condensed in a refrigerator. The liquid stained on the wall was fallen down by centrifugation for a few seconds. The sample proceeded to 10% SDS (Sodium Dodecyl Sulfate) acrylamide gel for separation. The separated protein was transferred onto PVDF (poly-vinyl difluoride) membrane, followed by reaction with pAkt (phospho protein kinase B) antibody (Ser473 or Thr308; Cell signaling, 9271s or 13038s) for 12 hours at 4° C. The membrane was washed with TBST (Tris-Buffered Saline with Tween 20, 10 mM Tris-HCl, pH 7.5, 150 mM NaCl, 0.1% Tween-20) three times for 5 minutes each, to which the secondary antibody (rabbit antibody, Santacruz, sc-2004) was added, followed by reaction at room temperature for 2 hours. The membrane was washed with TBST three times for 10 minutes each, to which ECL (enhanced chemiluminescence, Thermo, NCI34095KR) was sprayed. Bands were investigated by using LAS-3000.
# The inhibition of phosphatidylinositol 3 kinase gamma (PI3K γ) by those compounds prepared in Examples 1˜98 was investigated by the following experiment. The inhibition activity of each compound was measured in the following conditions: ATP=10 uM, and sample concentration=100 nM.
# (§2) Macrophages (RAW264.7) cultured in DMEM (Dulbecco's Modified Eagle Medium, Hyclon, SH30243.01) supplemented with 10% fetal bovine serum (Hyclon, USA) were distributed in a 12-well plate at the density of 1,000,000 cells/well. The cells were stabilized in a 37° C. CO2 for 24 hours and then treated with each compound for 1 and half hours. The cells were treated with 10 ng/mL of C5a (complement component 5a, 10 μg/mL; R&D, 2150-C5) to increase the intracellular activity of PI3K gamma. 5 minutes later, the medium was discarded and the cells were washed with cold PBS (phosphate buffered saline, Gibco, 14190-250). PBS was then eliminated completely by using a pipette. Western blotting was performed according to the same manner as described in step 2 of Experimental Example 1 to evaluate the intracellular PI3K gamma activity.
# [1] = target: T2, PI3 Kinase (p110δ/p85α) (h) (Homo sapiens, UniProt O00329); test: Inhibition of phosphatidylinositol 3-kinase delta (PI3K δ), pAkt Western blotting in IgM-stimulated Raji cells; format: cell-based; conditions: ATP=10 uM, sample concentration=100 nM
# T2 construct: endogenous in cells; host or cells: Raji
# Experimental: as §1
# The inhibition of phosphatidylinositol 3 kinase delta (PI3K δ) by those compounds prepared in Examples 1˜98 was investigated by the following experiment. The inhibition activity of each compound was measured in the following conditions: ATP=10 uM, and sample concentration=100 nM.
# as §2, with “Raji cells” for “Macrophages (RAW264.7)”, “RPMI1640 (Hyclone, SH30027.02)” for “DMEM (Dulbecco's Modified Eagle Medium, Hyclon, SH30243.01)”, “0.25 μg/mL” for “10 ng/mL”, “IgM (immunoglobulin M, Southern Biotech, USA)” for “C5a (complement component 5a, 10 μg/mL; R&D, 2150-C5)”, “delta. 30” for “gamma. 5”, “delta” for “gamma”
# T1 sequence (P48736 whole entry): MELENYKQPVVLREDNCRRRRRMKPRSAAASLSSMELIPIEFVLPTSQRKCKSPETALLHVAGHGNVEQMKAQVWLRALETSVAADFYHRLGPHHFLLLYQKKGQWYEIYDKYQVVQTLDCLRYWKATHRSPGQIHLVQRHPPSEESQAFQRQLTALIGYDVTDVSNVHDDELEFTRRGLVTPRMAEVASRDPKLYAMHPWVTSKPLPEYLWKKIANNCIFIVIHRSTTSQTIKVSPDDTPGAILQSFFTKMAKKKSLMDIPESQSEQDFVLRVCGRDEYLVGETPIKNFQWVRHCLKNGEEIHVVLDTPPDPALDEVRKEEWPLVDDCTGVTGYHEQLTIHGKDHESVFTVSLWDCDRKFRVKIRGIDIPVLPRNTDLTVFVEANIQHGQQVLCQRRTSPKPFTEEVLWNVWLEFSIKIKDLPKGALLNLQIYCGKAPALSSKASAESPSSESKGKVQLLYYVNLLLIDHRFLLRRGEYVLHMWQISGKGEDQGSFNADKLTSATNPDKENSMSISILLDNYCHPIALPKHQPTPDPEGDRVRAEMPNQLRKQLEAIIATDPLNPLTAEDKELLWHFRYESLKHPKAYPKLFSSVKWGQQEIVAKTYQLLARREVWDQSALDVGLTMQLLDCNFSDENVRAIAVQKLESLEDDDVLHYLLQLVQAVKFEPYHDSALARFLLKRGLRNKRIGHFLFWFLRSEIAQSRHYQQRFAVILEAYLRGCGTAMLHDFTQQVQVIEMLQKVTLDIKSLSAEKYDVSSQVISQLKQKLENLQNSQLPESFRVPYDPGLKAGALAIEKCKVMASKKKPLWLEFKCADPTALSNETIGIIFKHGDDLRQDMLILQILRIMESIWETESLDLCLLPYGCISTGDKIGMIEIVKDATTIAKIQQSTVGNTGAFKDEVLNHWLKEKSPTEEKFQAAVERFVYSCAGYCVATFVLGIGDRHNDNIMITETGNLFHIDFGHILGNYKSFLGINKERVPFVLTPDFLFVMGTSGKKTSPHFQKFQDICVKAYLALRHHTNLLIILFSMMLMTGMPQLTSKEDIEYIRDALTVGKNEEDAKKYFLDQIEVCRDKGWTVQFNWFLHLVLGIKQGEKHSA
# T2 sequence (O00329 whole entry): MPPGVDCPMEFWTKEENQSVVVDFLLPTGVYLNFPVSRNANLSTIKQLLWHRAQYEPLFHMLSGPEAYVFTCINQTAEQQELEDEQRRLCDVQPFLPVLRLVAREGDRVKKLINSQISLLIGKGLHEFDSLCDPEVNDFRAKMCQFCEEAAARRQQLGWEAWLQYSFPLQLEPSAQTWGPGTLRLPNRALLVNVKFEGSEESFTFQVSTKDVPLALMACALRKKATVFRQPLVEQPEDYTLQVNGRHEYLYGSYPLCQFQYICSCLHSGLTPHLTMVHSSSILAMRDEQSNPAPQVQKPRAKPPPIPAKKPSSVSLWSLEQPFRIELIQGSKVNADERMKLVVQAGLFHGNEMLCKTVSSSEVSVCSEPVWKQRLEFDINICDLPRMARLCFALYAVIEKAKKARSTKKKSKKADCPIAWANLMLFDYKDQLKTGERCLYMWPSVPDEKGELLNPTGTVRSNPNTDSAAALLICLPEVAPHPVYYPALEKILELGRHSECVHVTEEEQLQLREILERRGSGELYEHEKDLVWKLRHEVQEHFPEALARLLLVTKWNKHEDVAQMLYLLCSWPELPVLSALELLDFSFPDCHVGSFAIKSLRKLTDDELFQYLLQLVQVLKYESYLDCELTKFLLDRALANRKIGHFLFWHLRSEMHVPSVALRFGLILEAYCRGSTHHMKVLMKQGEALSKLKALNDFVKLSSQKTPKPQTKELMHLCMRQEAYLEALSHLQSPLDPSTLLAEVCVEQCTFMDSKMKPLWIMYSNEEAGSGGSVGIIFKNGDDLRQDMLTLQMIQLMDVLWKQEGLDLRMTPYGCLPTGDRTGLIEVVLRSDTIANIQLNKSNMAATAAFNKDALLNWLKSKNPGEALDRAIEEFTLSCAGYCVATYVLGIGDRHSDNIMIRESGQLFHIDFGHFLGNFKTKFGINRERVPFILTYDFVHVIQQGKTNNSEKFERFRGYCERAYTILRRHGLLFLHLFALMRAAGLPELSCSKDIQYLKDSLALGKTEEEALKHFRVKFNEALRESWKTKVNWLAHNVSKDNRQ
# T2 sequence (P27986 whole entry partner): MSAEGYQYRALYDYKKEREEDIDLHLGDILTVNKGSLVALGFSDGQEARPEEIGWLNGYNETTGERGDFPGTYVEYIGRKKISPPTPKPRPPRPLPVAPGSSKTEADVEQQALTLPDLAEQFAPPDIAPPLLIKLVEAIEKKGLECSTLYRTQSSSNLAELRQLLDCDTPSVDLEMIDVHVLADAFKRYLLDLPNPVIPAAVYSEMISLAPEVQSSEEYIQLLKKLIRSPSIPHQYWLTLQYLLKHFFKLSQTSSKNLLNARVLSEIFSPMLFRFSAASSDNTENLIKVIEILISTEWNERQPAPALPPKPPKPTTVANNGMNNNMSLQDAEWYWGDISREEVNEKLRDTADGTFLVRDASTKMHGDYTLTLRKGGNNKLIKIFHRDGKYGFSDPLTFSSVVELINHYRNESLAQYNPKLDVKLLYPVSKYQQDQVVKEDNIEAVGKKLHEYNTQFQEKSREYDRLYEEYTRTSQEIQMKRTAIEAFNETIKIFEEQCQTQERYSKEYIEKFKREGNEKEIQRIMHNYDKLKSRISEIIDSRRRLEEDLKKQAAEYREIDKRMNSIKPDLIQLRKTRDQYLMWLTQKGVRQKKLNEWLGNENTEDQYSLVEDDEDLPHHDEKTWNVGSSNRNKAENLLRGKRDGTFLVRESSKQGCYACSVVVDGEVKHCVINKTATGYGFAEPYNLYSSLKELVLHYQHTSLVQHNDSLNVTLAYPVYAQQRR
Compound,IC50 (PI3 Kinase (p120γ) (h)) [nM],IC50 [1] [nM]
"O=c1nc[nH]c2ncnc(N3CCC[C@H]3c3nn4ccc(Cl)c4c(=O)n3-c3cccc(F)c3)c12 [Example 80, (S)-5-(2-(5-chloro-3-(3-fluorophenyl)-4-oxo-3,4-dihydropyrrolo[2,1-f][1,2,4]triazine-2-yl)pyrrolidine-1-yl)pyrimido[4,5-d]pyrimidine-4(1H)-one]",> 500,> 500
"Cc1cccc(-n2c([C@H](C)Nc3ncnc4[nH]cnc(=O)c34)nc3cccc(Cl)c3c2=O)c1 [Example 69, (S)-5-((1-(5-chloro-4-oxo-3-(m-tolyl)-3,4-dihydroquinazoline-2-yl)ethyl)amino)pyrimido[4,5-d]pyrimidine-4(1H)-one]",> 500,10 to 500
"Cc1cccc(-n2c([C@@H]3CCCN3c3ncnc4c3C(=O)N(C)CN4)nc3cccc(Cl)c3c2=O)c1 [Example 45, (S)-5-(2-(5-chloro-4-oxo-3-(m-tolyl)-3,4-dihydroquinazoline-2-yl)pyrrolidine-1-yl)-3-methyl-2,3-dihydropyrimido[4,5-d]pyrimidine-4(1H)-one]",10 to 500,10 to 500
"C[C@H](Nc1ncnc2c1C(=O)N(C)CN2)c1cc2ccccc2nc1-c1ccccc1 [Example 39-1, (S)-3-methyl-5-((1-(2-phenylquinoline-3-yl)ethyl)amino)-2,3-dihydropyrimido[4,5-d]pyrimidine-4(1H)-one]",< 10,10 to 500
"Cc1cccc(-n2c([C@H](C)Nc3nc(N)nc4c3C(=O)N(C)CN4)nc3cccc(Cl)c3c2=O)c1 [Example 51, (S)-7-amino-5-((1-(5-chloro-4-oxo-3-(m-tolyl)-3,4-dihydroquinazoline-2-yl)ethyl)amino)-3-methyl-2,3-dihydropyrimido[4,5-d]pyrimidine-4(1H)-one]",10 to 500,< 10
"C[C@H](Nc1nc(N)nc2c1C(=O)N(C)CN2)c1cc2ccccc2nc1-c1ccccc1 [Example 53, (S)-7-amino-3-methyl-5-((1-(2-phenylquinoline-3-yl)ethyl)amino)-2,3-dihydropyrimido[4,5-d]pyrimidine-4(1H)-one]",10 to 500,10 to 500
"C[C@H](Nc1ncnc2[nH]cnc(=O)c12)c1nc2cccc(Cl)c2c(=O)n1-c1ccccc1 [Example 66, (S)-5-((1-(5-chloro-4-oxo-3-phenyl-3,4-dihydroquinazoline-2-yl)ethyl)amino)pyrimido[4,5-d]pyrimidine-4(1H)-one]",> 500,10 to 500
"Cc1cccc(-n2c([C@H](C)Nc3ncnc4c3C(=O)N(C)CN4)nc3cccc(Cl)c3c2=O)c1 [Example 37, (S)-5-((1-(5-chloro-4-oxo-3-(m-tolyl)-3,4-dihydroquinazoline-2-yl)ethyl)amino)-3-methyl-2,3-dihydropyrimido[4,5-d]pyrimidine-4(1H)-one]",10 to 500,< 10
"C[C@H](Nc1ncnc2c1C(=O)N(C)CN2)c1nc2cccc(Cl)c2c(=O)n1-c1ccccc1 [Example 34, (S)-5-((1-(5-chloro-4-oxo-3-phenyl-3,4-dihydroquinazoline-2-yl)ethyl)amino)-3-methyl-2,3-dihydropyrimido[4,5-d]pyrimidine-4(1H)-one]",10 to 500,< 10
"C[C@H](Nc1nc(N)nc2[nH]cnc(=O)c12)c1nc2cccc(Cl)c2c(=O)n1-c1cccc(F)c1 [Example 83, (S)-7-amino-5-((1-(5-chloro-3-(3-fluorophenyl)-4-oxo-3,4-dihydroquinazoline-2-yl)ethyl)amino)pyrimido[4,5-d]pyrimidine-4(1H)-one]",> 500,> 500
"C[C@H](Nc1nc(N)nc2[nH]cnc(=O)c12)c1nc2cccc(Cl)c2c(=O)n1-c1ccccc1 [Example 81, (S)-7-amino-5-((1-(5-chloro-4-oxo-3-phenyl-3,4-dihydroquinazoline-2-yl)ethyl)amino)pyrimido[4,5-d]pyrimidine-4(1H)-one]",10 to 500,10 to 500
"O=c1nc[nH]c2ncnc(N3CCC[C@H]3c3nc4cccc(Cl)c4c(=O)n3-c3cccc(F)c3)c12 [Example 77, (S)-5-(2-(5-chloro-3-(3-fluorophenyl)-4-oxo-3,4-dihydroquinazoline-2-yl)pyrrolidine-1-yl)pyrimido[4,5-d]pyrimidine-4(1H)-one]",> 500,> 500
"C[C@H](Nc1ncnc2c1C(=O)N(C)CN2)c1nc2cccc(Cl)c2c(=O)n1-c1cccc(F)c1 [Example 36, (S)-5-((1-(5-chloro-3-(3-fluorophenyl)-4-oxo-3,4-dihydroquinazoline-2-yl)ethyl)amino)-3-methyl-2,3-dihydropyrimido[4,5-d]pyrimidine-4(1H)-one]",10 to 500,< 10
"C[C@H](Nc1nc(N)nc2c1C(=O)N(C)CN2)c1nc2cccc(Cl)c2c(=O)n1-c1cccc(F)c1 [Example 50, (S)-7-amino-5-((1-(5-chloro-3-(3-fluorophenyl)-4-oxo-3,4-dihydroquinazoline-2-yl)ethyl)amino)-3-methyl-2,3-dihydropyrimido[4,5-d]pyrimidine-4(1H)-one]",10 to 500,< 10
"CC[C@H](Nc1ncnc2[nH]cnc(=O)c12)c1nc2cccc(F)c2c(=O)n1-c1ccccc1 [Example 73, (S)-5-((1-(5-fluoro-4-oxo-3-phenyl-3,4-dihydroquinazoline-2-yl)propyl)amino)pyrimido[4,5-d]pyrimidine-4(1H)-one]",> 500,> 500
"Cc1cccc(-n2c([C@@H]3CCCN3c3nc(N)nc4[nH]cnc(=O)c34)nc3cccc(Cl)c3c2=O)c1 [Example 93, (S)-7-amino-5-(2-(5-chloro-4-oxo-3-(m-tolyl)-3,4-dihydroquinazoline-2-yl)pyrrolidine-1-yl)pyrimido[4,5-d]pyrimidine-4(1H)-one]",> 500,> 500
